Test system: TC-1 cell line (mouse lung cancer cell line)
Format: cell-based
Settings: TC-1 cells, released from PCL membrane
Experimental: In one embodiment, the drug release rates of different kinds of the biodegradable polymeric membrane were tested. There were 6 experimental groups and 1 control group. Control group: TCPS (Tissue Culture Polystyrene); experimental group 1: the non-porous PCL membrane without any drugs; experimental group 2: the non-porous PCL membrane with 1 μg/ml of Cisplatin (0.3 μg/well); experimental group 3: the non-porous PCL membrane with 10 μg/ml of Cisplatin (3 μg/well); experimental group 4: the porous PCL membrane without any drugs; experimental group 5: the porous PCL membrane with 1 μg/ml of Cisplatin (0.3 μg/well); and experimental group 6: the porous PCL membrane with 10 μg/ml of Cisplatin (3 μg/well). The pores of the above porous PCL membrane were created by 0.01 g/mL of NaCl.
In this embodiment, different kinds of membranes with drugs were cultured in TC-1 cell line (mouse lung cancer cell line) for three days, and the cell growth and cytotoxicity were measured by using AlamarBlue™. The absorbance was at 570 nm and 600 nm as the background.

N.N.[Cl][Pt][Cl] [cisplatin]
killing cancer cells: capability of killing cancer cells

Reference: patent US10219794B2, “Method of treating pleural abnormality” (National Taiwan University, priority 2014, dated 2019)
